From patent publication US11952584B2, “Functional peptides having antimicrobial activity against phytopathogenic microorganisms” (TOYOTA JIDOSHA KABUSHIKI KAISHA, priority 2019, dated 2024) come the findings set out here.

Values joined by “and” are separate entries in the source; they are usually repeats but may differ in a detail not shown here. Equal entries are not always repeated. Where two headings read alike, the source gives them in different places. Ends that are not written are not given here.

The test system of assay [1] is Botrytis cinerea. It is filed as cell-based. The settings on record: 25° C., 1 day or 2 days.
In assay [2] the test system is Colletotrichum destructivum. It is filed as cell-based. The settings on record: 25° C., 1 day or 2 days.
The next assay has as its system Fusarium oxysporum. It is filed as cell-based.
The subject of assay [3] is Botrytis cinerea. Description: Botrytis cinerea leaf inoculation test (tomato leaf). The settings on record: tomato leaf inoculation test; not shown in the figures. It is filed as in vivo. The protocol:
In the present example, a suspension comprising Botrytis cinerea and a peptide to be tested was dropped on a plant leaf, and lesions were then observed by visual inspection to evaluate the antimicrobial activity of the tested peptide. First, the pores of Botrytis cinerea were suspended in a potato dextrose broth (PDB) to result in a spore concentration of 5×10^5 spores/ml, so as to prepare a PDB suspension spore solution. Subsequently, a peptide to be tested (TsORF18-2) was added to the PDB suspension spore solution, so that the final concentration of the peptide to be tested became 0 μM, 1 μM, 10 μM or 100 μM. It is to be noted that, as peptides to be tested, TsORF18 (full length) and TsORF18-40 a.a. were also used in the same manner as that of TsORF18-2. TsORF18 (full length) was dissolved in DMSO and was then used. On the other hand, TsORF18-2 and TsORF18-40 a.a were each dissolved in Milli-Q water and were then used. Thereafter, 10 μl each of the PDB suspension spore solution containing the peptide to be tested was dropped on the front side and the back side of the leaf of tomato (variety name: “Ponte Rosa”). In this condition, incubation was carried out at 25° C. for 2 days. Thereafter, the front and back sides of the leaf were observed by visual inspection.

The subject of assay [4] is Colletotrichum destructivum. Description: Colletotrichum destructivum leaf inoculation test (Chinese cabbage leaf). It is filed as in vivo. The note with it: 25° C.; for Leaf inoculation test Chinese cabbage/Colletotrichum destructivum: 4 days, lesions by visual inspection. From the text: In the present example, a suspension comprising Colletotrichum destructivum and a peptide to be tested was dropped on a plant leaf, and lesions were then observed by visual inspection to evaluate the antimicrobial activity of the tested peptide. First, the pores of Colletotrichum destructivum were suspended in water to result in a spore concentration of 5×10^5 spores/ml, so as to prepare a water suspension of spores. Subsequently, peptides to be tested (TsORF18 (full length), TsORF18-40 a.a., and TsORF18-2) were each added to the water suspension of spores, so that the final concentration of the peptides to be tested became 0 μM, 1 μM, 10 μM or 100 μM. Thereafter, 10 μl each of the water suspension of spores containing the peptide to be tested was dropped on the front side and the back side of the leaf of Chinese cabbage (variety name: “Kigokoro 85”). In this condition, incubation was carried out at 25° C. for 4 days. Thereafter, the front and back sides of the leaf were observed by visual inspection.

The subject of a further assay is Ralstonia solanacearum. The settings on record: peptide 100 μM, 28° C. a whole day and night; for Inhibitory rate Ralstonia solanacearum: relative to water; for OD600 Ralstonia solanacearum: water control 2.6.
Assay [5] relates to Erwinia carotovora subsp. carotovora.
Assay [6] concerns Xanthomonas oryzae pv. oryzae. The note with it: peptide 100 μM, 28° C. a whole day and night; for Inhibitory rate Xanthomonas oryzae pv. oryzae: relative to water; for OD600 Xanthomonas oryzae pv. oryzae: water control 2.1.
The subject of assay [7] is Pseudomonas syringae pv. tomato.

With “ILLSLEIFERKFSRSVWYYGFPAFSERTRKFWRIWKGKTS [TsORF18-40aa]”, the “Plate antimicrobial activity test Botrytis cinerea (level)” value is 0 in the assay with Botrytis cinerea [1] (peptide 1 μM), 0 in the assay with Botrytis cinerea [1] (peptide 10 μM) and 3 with Botrytis cinerea [1] (peptide 100 μM). Besides, the “Plate antimicrobial activity test Colletotrichum destructivum (level)” value is recorded as 0 in assay [2] (peptide 1 μM), 0 in [2] (peptide 10 μM) and 3 in assay [2] (peptide 100 μM). Further, in the assay with Fusarium oxysporum, the “Plate antimicrobial activity test Fusarium oxysporum (level)” value is 3 and 0. Also, the “inhibitory effects against Botrytis cinerea (in words)” value with Botrytis cinerea [3] is given as “not observed”. In addition, the “lesion of Colletotrichum destructivum (in words)” value in assay [4] (concentration of 10 μM or 100 μM, 4 days (FIG. 3)) is reported as “not observed”. Moreover, the “Leaf inoculation test Chinese cabbage/Colletotrichum destructivum” value in assay [4] (peptide 1 μM) is recorded as “Δ”; in assay [4] (peptide 10 μM), “∘”; in assay [4] (peptide 100 μM), “∘”. In the assay with Ralstonia solanacearum, the “Inhibitory rate Ralstonia solanacearum” value is −7.7%. Besides, the “OD600 Ralstonia solanacearum” value in the assay with Ralstonia solanacearum came out at 2.8. For the same molecule, in [5], the “OD600 Erwinia carotovora subsp. cartovora” value is given as 2.2. For the same molecule, the “Inhibitory rate Erwinia carotovora subsp. cartovora” value in assay [5] (100 μM) is recorded as −18.1%. Further, the “Inhibitory rate Xanthomonas oryzae pv. oryzae” value in [6] was −5.8%. The “OD600 Xanthomonas oryzae pv. oryzae” value in [6] was found to be 2.2. The “OD600 Pseudomonas syringae pv. tomato” value in [7] stood at 1.9. For the same molecule, the “Inhibitory rate Pseudomonas syringae pv. tomato” value in [7] (100 μM) amounted to 25.8%.

B1: mdfimlaaaivkesfiflligllaaILLSLEIFERKFSRSVWYYGFPAFSERTRKFWRIWKGK TS (peptide, listed as Solanum lycopersicum)
chain: MDFIMLAAAIVKESFIFLLIGLLAAILLSLEIFERKFSRSVWYYGFPAFSERTRKFWRIWKGKTS
notes: peptide of 65 amino acid residues from tomato xylem sap
On to B1, for which, in the assay with Botrytis cinerea [1] (peptide 1 μM), the “Plate antimicrobial activity test Botrytis cinerea (level)” value is listed as 0. In the assay with Botrytis cinerea [1] (peptide 10 μM), the “Plate antimicrobial activity test Botrytis cinerea (level)” value was 0. For the same molecule, the “Plate antimicrobial activity test Botrytis cinerea (level)” value in the assay with Botrytis cinerea [1] (peptide 100 μM) was 0. The “Plate antimicrobial activity test Colletotrichum destructivum (level)” value in assay [2] (peptide 1 μM) came to 0. The “Plate antimicrobial activity test Colletotrichum destructivum (level)” value in assay [2] (peptide 10 μM) was found to be 0. Also, the “Plate antimicrobial activity test Colletotrichum destructivum (level)” value in [2] (peptide 100 μM) worked out at 1. Further, the “Plate antimicrobial activity test Fusarium oxysporum (level)” value with Fusarium oxysporum was 0. For the same molecule, in the assay with Botrytis cinerea [3], the “inhibitory effects against Botrytis cinerea (in words)” value is recorded as “not observed”. For the same molecule, in the assay with Ralstonia solanacearum, the “Inhibitory rate Ralstonia solanacearum” value is −0.9% and the “OD600 Ralstonia solanacearum” value is given as 2.6. Besides, in assay [5], the “Inhibitory rate Erwinia carotovora subsp. cartovora” value is recorded as −3.7% and the “OD600 Erwinia carotovora subsp. cartovora” value is recorded as 1.9. In addition, in assay [6], the “Inhibitory rate Xanthomonas oryzae pv. oryzae” value was 6.5% and the “OD600 Xanthomonas oryzae pv. oryzae” value turned out to be 2.0. Moreover, in assay [7], the “Inhibitory rate Pseudomonas syringae pv. tomato” value is listed as −3.1% and the “OD600 Pseudomonas syringae pv. tomato” value is listed as 2.6.
